Experimental data from patent publication US20190248834A1, “ENDOMORPHIN-2, TETRAPEPTIDE DERIVATIVES THEREOF, AND USES THEREOF” (priority 2016, published 2019).
No end group written: not given here. *: point of attachment. NHNH2 = NN*

Tests used:
[1] = system: psoriatic arthritis, fingers and wrists; assay: Example 95: comparative analgesic efficacy on pain of psoriatic arthritis, topical; assay type: in vivo, human
Source text: […] Treatment of the subject over the years included methotrexate and other antimetabolites, and in recent years, drugs known as biologic medications. While these agents provided intervals of relief, none provided lasting benefit. Over the past decade, painful arthritis developed in both hands and knees, and in numerous joints of the fingers. Three related tetrapeptide derivatives, 1% (w/v) in vehicle WEP442, were topically applied to the fingers and wrists of both hands one at a time. […] Analgesic efficacy was rated by the subject as 75%.

[2] = system: osteoarthritis of the knees; assay: Example 94 (second): osteoarthritic knees, intra-articular injection of N-Bz hydrazide; assay type: in vivo, human; conditions: 0.08% (0.8 mg/ml) in water, 1 ml per knee intra-articular
Experimental: A subject with osteoarthritis of the knees that progressively worsened over the years, evaluated the analgesic effectiveness of many topical preparations of tetrapeptide derivatives of the invention on numerous occasions. After such experiences they decided to self-inject […] knees with a sterile aqueous preparation of N-Bz-Tyr-Pro-Phe-Phe-NHNH2 (SEQ ID NO: 91) at a concentration of 0.08% (0.8 mg/ml) in water. Each knee was injected with 1 ml (0.8 mg) of the preparation via the sub-patellar route. […] The knees felt more comfortable than usual after 24 hours. The improvement from […] was judged to be more than 90% by clinical evaluation.

lower back (lumbar) pain = assay: Example 85: analgesic effect on lower back pain, topical; assay type: in vivo, human
Experimental: A subject had lower back (lumbar) pain associated with sitting in a crouched position at a low work table for about 3 hours. Upon their sitting up straight, the pain became more pronounced and persisted as they walked around for 15-20 minutes.

[3] = system: trapezius muscle strain pain; assay: Example 81: analgesic effect on pain from trapezius muscle strain, topical; assay type: in vivo, human; conditions: 0.7% (w/v) in propylene glycol: triethyl citrate : water (4:4:2)
Source text: A subject with persistent pain localized to a site medial to the upper right scapula (shoulder blade) topically applied to that site a composition containing 0.7% (w/v) of N-Ac-Tyr-Pro-Phe-Phe-NHCH3(SEQ ID NO: 24) in propylene glycol: triethyl citrate : water (4:4:2 ratio).

post-sunburn pain = assay: Example 86: analgesic effect on sunburn pain, topical; assay type: in vivo, human
Experimental: A subject, experienced post-sunburn pain at the frontal hairline of the scalp, an area not earlier covered by sunscreen lotion at time of sun exposure several days earlier. They vigorously rubbed the area later to remove lingering skin scales, which caused irritation and pain. […] Relief lasted for 4 hours. […] The condition was then resolved with the use of a hydrating skin cream.

[4] = system: psoriatic arthritis of finger joints; assay: Example 84: analgesic effect on pain from psoriatic arthritis, topical; assay type: in vivo, human; conditions: 0.8% (w/v) in WEP442, topical
Source text: A subject […], had extensive plaque psoriasis and painful arthritis of the interphalangeal joints of both index fingers, left thumb and left 5th finger, which compromised their work performance as an esthetician. The subject topically applied a solution composition containing 0.8% (w/v) of N-Ac-Tyr-Pro-Phe-Phe-NHCH3 (SEQ ID NO: 24) in WEP442 to their painful fingers.

[5] = system: osteoarthritis of the fingers and wrists; assay: Example 83: analgesic effect on osteoarthritic pain, topical; assay type: in vivo, human; conditions: 0.8% (w/v) in WEP442, topical
Experimental: A subject had osteoarthritis of the fingers and wrists for about 10 years, with substantial worsening over the past several months. Symptoms included painful finger joints and wrists. The pain was much worsened by flexion, so that making a first was too painful to try. Moreover, complete flexion had not been possible because of actual physical limitations. Anatomical signs of their disorder, e.g., enlarged finger joints, were conspicuous in their case. After 36 hours of no topical or systemic use of any analgesic agent, pain in the fingers and wrists was again present and substantial, so much so that they were unable to slice vegetables with a knife.

thermal burn of finger = assay: Example 56: analgesic effect on finger pain caused by thermal burn, topical; assay type: in vivo, human; conditions: 1% (w/v) in WEP442, topical
Source text: A subject, suffered a thermal burn of their right fourth finger from touching a hot kitchen plate. […] Six days later, the burned site appeared normal.

hangover headache = assay: Example 54: analgesic effect on hangover headache, topical; assay type: in vivo, human; conditions: 1% (w/v) in WEP442, topical
Source text: A subject with a “splitting” headache the morning after heavy drinking at a party the night before, topically applied to the entire head and neck a composition containing 1% (w/v) of N-Ac-Tyr-Pro-Phe-Phe-NHNH2 (SEQ ID NO: 31) in WEP442. […] They then drove their car approximately 90 miles to their residence.

migraine = assay: Example 80: analgesic effect on pain and nausea from migraine headache, topical; assay type: in vivo, human; conditions: 0.5% (w/v) in WEP442, topical at onset of symptoms
Source text: A subject with a history of recurrent attacks of migraine, was provided a solution composition containing 0.5% (w/v) of N-Pg-Tyr-Pro-Phe-Phe-NH2 (SEQ ID NO: 44) in WEP442 and a solution composition containing 0.5% (w/v) of N-Ac-Tyr-Pro-Phe-Phe-NHNH2 (SEQ ID NO: 31) in WEP442. […] Sensations of nausea that might have lingered went away after several minutes following a second topical application.

sinus headaches = assay: Example 55: analgesic effect on headache due to sinusitis, topical; assay type: in vivo, human; conditions: 1% (w/v) in WEP442, topical
Source text: A subject, suffered from chronic recurrent “sinus headaches.” At the time of one such headache, they topically applied to the entire forehead and, with their eyes closed, to the sites overlying the frontal and maxillary sinuses a composition containing 1% (w/v) of N-Ac-Tyr-Pro-Phe-Phe-NHNH2 (SEQ ID NO: 31) in WEP442.

[6] = system: psoriatic arthritis pain, fingers and wrists; assay: Example 48: comparative analgesic efficacy, psoriatic arthritis pain of fingers and wrists, topical; assay type: in vivo, human; conditions: 1% (w/v) in WEP442, topical
Source text: […] Treatment of the subject over the years included methotrexate and other antimetabolites, and in recent years drugs known as biologic medications. While these agents have provided intervals of relief, none has provided a lasting benefit. Over the past decade, painful arthritis developed in both wrists and in numerous joints of the fingers. Four related tetrapeptide derivatives, 1% (w/v) solution compositions in vehicle WEP442, one at a time, were topically applied to the fingers and wrists of both hands. […] Efficacy was rated by the subject as 4+. • (B) N-Ac-Tyr-Pro-Phe-Phe-NHNH2 (SEQ ID NO: 31) provided slow relief of pain, i.e. within about 10 minutes. […] Analgesic efficacy was judged by the subject to be 0 to 1+.

[7] = system: arthritic pain of wrists and fingers (psoriasis); assay: Example 61: comparative analgesic efficacy in psoriatic arthritis of wrists and fingers, topical; assay type: in vivo, human; conditions: 1% (w/v) in WEP442, topical
Source text: A subject with severe generalized psoriasis compared the topical efficacy of solution compositions of nine (9) tetrapeptide derivatives on arthritic pain of their wrists and fingers. All of the solution compositions contained 1% (w/v) of tetrapeptide derivative in WEP442.

[8] = system: rat rostral ventrolateral medulla neurons; conditions: in vitro; cited from earlier work
[9] = system: pain caused by needling or pinching; assay: Example 91: experimentally induced skin pain, intradermal and subcutaneous injection; assay type: in vivo, human; conditions: 0.1% sterile aqueous solution pH 6.2, intradermally 0.1 ml and subcutaneously 0.2 ml
adjuvant arthritis = conditions: intraperitoneal injection; cited from earlier work
[10] = rats injected at 5-10 μg; cited from earlier work
[11] = system: extruded intervertebral cervical disc, pain and paresthesia; assay: Example 40: painful extruded intervertebral cervical disc, subcutaneous injection; assay type: in vivo, human
Source text: Previous therapy undergone by the subject included epidural injections of corticosteroids. Within the past several months, the pain had intensified, along with a substantial degree of paresthesia and numbness of the fingers of both hands. […] Relief of pain and paresthesia lasted for 1-2 days. Thereafter, the pain and paresthesia returned.
About 1 week later, pain and paresthesia were negligible, but returned within 2-3 weeks. Such injections were repeated 3 times at approximately monthly intervals with the same beneficial results. However, pain and paresthesia were not cured, and recurring within 2-3 weeks.

[12] = system: extruded intervertebral cervical disc, pain and paresthesia; assay: Example 40: painful extruded intervertebral cervical disc, topical; assay type: in vivo, human
Source text: Previous therapy undergone by the subject included epidural injections of corticosteroids.

[13] = system: sore site on the left lower gum; assay: Example 38: analgesic effect on gum pain due to pressure from denture; assay type: in vivo, human
Experimental: […]. […] The dentures were removed and re-inserted 15 hours later. Within about 1 hour, soreness of the same area began to return and application of the above solution composition was repeated in the same way as the day before. All soreness again was alleviated within 5-10 seconds. The relief lasted again for about 7 hours.

mu receptors = mu receptors (Mus musculus, UniProt P42866); conditions: mouse brain; cited from earlier work
Sequence of mu receptors (P42866 whole entry): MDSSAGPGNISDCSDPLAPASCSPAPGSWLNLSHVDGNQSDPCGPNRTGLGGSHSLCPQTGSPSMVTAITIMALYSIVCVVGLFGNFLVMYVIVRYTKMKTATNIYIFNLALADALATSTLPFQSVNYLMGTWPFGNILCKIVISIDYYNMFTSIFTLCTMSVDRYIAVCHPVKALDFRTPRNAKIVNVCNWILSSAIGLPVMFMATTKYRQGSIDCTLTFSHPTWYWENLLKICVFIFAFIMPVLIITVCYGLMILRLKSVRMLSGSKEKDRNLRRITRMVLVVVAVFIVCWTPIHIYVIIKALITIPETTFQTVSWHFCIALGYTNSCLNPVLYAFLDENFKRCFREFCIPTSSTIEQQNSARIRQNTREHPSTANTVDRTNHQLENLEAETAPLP

[14] = rats injected with 18 pmol; cited from earlier work
[15] = 0.5% (w/v) in WEP442, gauze under plastic film

Compound: NNC(=O)[C@H](Cc1ccccc1)NC(=O)[C@H](Cc1ccccc1)NC(=O)[C@@H]1CCCN1C(=O)[C@H](Cc1ccc(O)cc1)NC(=O)c1ccccc1 [N-Bz-Tyr-Pro-Phe-Phe-NHNH2]
- analgesic efficacy rated by the subject ([1]; 1% (w/v) in WEP442, topical): 100%
- duration of pain relief ([1]; 1% (w/v) in WEP442, topical): about 24 hours
- pain relief ([1]; 1% (w/v) in WEP442, topical to fingers and wrists): rapid complete relief of pain
- discomfort from the injections [2]: no discomfort from the injections
- duration of pain relief [2]: 11 h
- improvement by clinical evaluation [2]: more than 90%
- pains in both knees [2]: gradually disappeared

Compound: N-Ac-Tyr-Pro-Phe-Phe-NHCH3 (Ac-YPFF-NHMe; SMILES CNC(=O)[C@H](Cc1ccccc1)NC(=O)[C@H](Cc1ccccc1)NC(=O)[C@@H]1CCCN1C(=O)[C@H](Cc1ccc(O)cc1)NC(C)=O)
- recurrence (lower back (lumbar) pain; 0/8% (w/v) in WEP442, topical): did not return
- time to pain relief (lower back (lumbar) pain; 0/8% (w/v) in WEP442, topical): ≤ 5 min
- pain relief (lower back (lumbar) pain; (w/v) in WEP442, topical): complete resolution of all pain in the lower back
- duration of pain relief [3]: about 4 hours
- pain relief [3]: Complete relief of pain
- time to pain relief [3]: ≤ 2 min
- pain relief (post-sunburn pain; 0.8% (w/v) in WEP442, several applications over the next 24 hours): complete relief of pain
- duration of relief (post-sunburn pain; 0.8% (w/v) in WEP442, topical): 4 h
- pain relief (post-sunburn pain; 0.8% (w/v) in WEP442, topical): almost immediate relief of the painful discomfort
- duration of pain relief [4]: about 7 hours
- pain relief [4]: completely relieved
- time to pain relief [4]: 3 to 4 min
- duration of pain relief [5]: about 17 hours
- pain relief [5]: completely relieved all pain
- time to pain relief [5]: 5 to 7 min

Compound: N-Ac-Tyr-Pro-Phe-Phe-NHNH2 (Ac-YPFF-NHNH2; SMILES CC(=O)N[C@@H](Cc1ccc(O)cc1)C(=O)N1CCC[C@H]1C(=O)N[C@@H](Cc1ccccc1)C(=O)N[C@@H](Cc1ccccc1)C(=O)NN)
- blister at burned site (thermal burn of finger): did not developed a blister
- pain relief (thermal burn of finger): completely relieved the pain almost instantly
- pain relief (hangover headache): the headache ceased
- time to pain relief (hangover headache): 1 to 2 min
- pain relief (migraine): complete relief of pain
- pain relief (sinus headaches): headache completely subsided
- time to pain relief (sinus headaches): ≤ 10 min
- pain relief [6]: Almost complete relief of pain
- time to pain relief [6]: ≤ 10 min

Compound: N-Ac-Tyr-Pro-Phe-Phe-OEt (Ac-YPFF-OEt; SMILES CCOC(=O)[C@H](Cc1ccccc1)NC(=O)[C@H](Cc1ccccc1)NC(=O)[C@@H]1CCCN1C(=O)[C@H](Cc1ccc(O)cc1)NC(C)=O)
- efficacy by clinical evaluation [7]: 0

Compound: Tyr-Pro-Phe-Phe-NH2 (YPFF-NH2)
- spontaneous discharge of the medullary neurons [8]: significantly inhibited
- effect on pain caused by needling or pinching of injected sites [9]: did not prevent pain
- effect on edema in rat paw assay (adjuvant arthritis): did not have any effect that significantly differed from the effect of the control group
- analgesic effects [10]: exhibited analgesic effects
- pain and paresthesia ([11]; 3 mg/ml sterile aqueous solution, subcutaneous, next day): diminished substantially
- time to return of pain and paresthesia ([11]; 3 mg/ml subcutaneous): 2-3 weeks
- pain and paresthesia ([11]; 3 mg/ml subcutaneous, repeated after 24 hours, about 1 week later): negligible
- duration of relief of pain and paresthesia [12, 15]: 1 to 2 days
- time to relief of symptoms [12, 15]: 8 h
- relief of symptoms ([12]; 0.5% (w/v) in WEP442, saturated gauze under plastic film over cervical vertebra 7): complete relief of symptoms
- duration of relief ([13]; 1% (w/v) in WEP442): about 7 hours
- time to relief ([13]; 1% (w/v) in WEP442): 5 to 10 s
- relief of soreness ([13]; 1% (w/v) in WEP442, applied to the sore gum area): all soreness was gone
- affinity for mu receptors (mu receptors): very high affinity

Compound: Tyr-Pro-Trp-Phe-NH2 [reference compound]
- spontaneous discharge of the medullary neurons [8]: significantly inhibited
- desensitization of the motor response [14]: did not induce rapid desensitization of the motor response
- affinity for mu receptors (mu receptors): very high affinity
